Active and inactive are the calls of the source.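 The calls were made as follows: active = caspase luminescence falls with dose and the half-maximal concentration AC50 from the fitted curve is at or below a set limit; inconclusive = flat fit at 30 to 70% signal loss, or invalid fit; inactive = AC50 above the limit, or signal rises instead.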
tested on: INS-1E cytokine-induced caspase-3/7, Caspase-Glo luminescence, 48 h; test: inhibitors of cytokine-induced caspase-3/7 activity, dose response, orthogonal assay for beta-cell apoptosis protection project, INS-1E rat cells, luminescence (AID 463206)

| Compound | AC50 |
| --- | --- |
| CCOC(=O)c1nc(NNC(=O)c2ccc([N+](=O)[O-])cc2)sc1C | > 26 µM (inactive) |
| C/C(=N\NC(=O)c1cc(-c2cccnc2)nc2ccccc12)c1ccc(O)cc1O | > 26 µM (inactive) |
| Cc1sc2ncnc(NCC(C)(C)N3CCOCC3)c2c1C | > 26 µM (inactive) |
| CCOC(=O)C1CCCN(S(=O)(=O)c2ccc(S(=O)(=O)N(CC)CC)cc2)C1 (configuration not stated) | > 26 µM (inactive) |
| Cc1ccccc1Oc1nc(-c2ccccn2)nc2ccccc12 | > 26 µM (inactive) |
| Cc1cc(C)c2nc(NNC(=O)c3ccc(S(=O)(=O)N4CCCC(C)C4)cc3)sc2c1 (configuration not stated) | > 26 µM (inactive) |
| CN(C1=C(NC(=O)c2ccccc2)C(=O)c2ccccc2C1=O)C1CCS(=O)(=O)C1 (configuration not stated) | > 26 µM (inactive) |
| COc1ccc(C(=O)N/N=C/c2cc(Br)ccc2O)cc1OC | > 26 µM (inactive) |
| COC(=O)[C@@H](Cc1ccccc1)N(Cc1ccccc1)S(=O)(=O)N(Cc1ccccc1)[C@H](Cc1ccccc1)C(=O)OC | > 26 µM (inactive) |
| NS(=O)(=O)c1ccc(N=Nc2ccc(O)c3ncccc23)cc1 | > 26 µM (inactive) |
| CSc1nc(-c2ccccc2)nc(C(Cl)Cl)n1 | 2.7 µM |
| CC1=NN(c2ccc(C)c(C)c2)C(=O)/C1=C\C=C\c1ccc([N+](=O)[O-])o1 | > 26 µM (inactive) |
| COc1ccccc1N1CCN(Cc2cc(Br)c(O)c3ncccc23)CC1 | > 12 µM (inactive) |
| Oc1[nH]c(N=C2N=c3ccccc3=N2)c2ccccc12 | > 26 µM (inactive) |
| O=C1C(C2=NC(c3ccccn3)C3C(=O)N(c4ccc(OC(F)(F)F)cc4)C(=O)C23)=C(O)c2ccccc21 (configuration not stated) | > 26 µM (inactive) |
| COc1ccc(/C=N/Nc2cc(C)nc(-n3nc(C)cc3C)n2)c(OC)c1 | > 26 µM (inactive) |
| O=C(CCCc1nc(-c2ccc(Cl)cc2)no1)NC1CCCC1 | > 12 µM (inactive) |
| CCCOc1ccc(/C=N/Nc2cc(N3CCOCC3)ncn2)c(O)c1 | > 26 µM (inactive) |
| CC(=O)c1cccc(NS(=O)(=O)c2ccc(N/C=C\C(=O)c3ccc(F)cc3)cc2)c1 | > 26 µM (inactive) |
| O=C(c1ccco1)N1N=C(c2ccc(Br)cc2)CC1c1ccco1 (configuration not stated) | > 26 µM (inactive) |
| FC(F)(F)c1cccc(-c2nc3nc(Cl)c(Cl)nc3[nH]2)c1 | > 26 µM (inactive) |
| COc1ccc(CNc2ncnc3sccc23)cc1 | > 26 µM (inactive) |
| Cc1cc(C)c2nc(NNC(=O)c3ccc(S(=O)(=O)N4CC(C)CC(C)C4)cc3)sc2c1 (configuration not stated) | > 26 µM (inactive) |

| Compound | AC50 |
| --- | --- |
| C/C(=N\NC(=O)c1cc(-c2cccnc2)nc2ccccc12)c1ccccc1O | > 26 µM (inactive) |
| CC1CCC(C(C)C)C(OC(=O)Cn2c(-c3ccc(Cl)cc3)[n+](C)c3ccccc32)C1 (configuration not stated) | > 26 µM (inactive) |
| CCSCCc1nnc(NC(=O)Nc2cccc(C(F)(F)F)c2)s1 | > 26 µM (inactive) |
| COc1ccc(Cn2cc3c(-c4ccc(F)cc4)nnc-3c3cc(OC)c(OC)cc32)cc1 | 12.9 µM |
| O=C(Nc1cccc(C(F)(F)F)c1)Oc1ccc(Cl)c2cccnc12 | > 26 µM (inactive) |
| FC(F)(F)c1ccccc1NC(=S)N1CCN(Cc2ccc3c(c2)OCO3)CC1 | > 26 µM (inactive) |
| COc1ccc2c(c1)c(/C=N/Nc1nc3ccccc3[nH]1)c(C)n2C | > 26 µM (inactive) |
| C/C(=N\NC(=O)c1ccc(NS(=O)(=O)c2cccs2)cc1)c1ccccn1 | > 12 µM (inactive) |
| CCOC(=O)c1cnc2ccc(OCC)cc2c1N1CCN(c2ccccc2)CC1 | > 12 µM (inactive) |
| CC(=O)Nc1ccc(S(=O)(=O)NC2=C(N3CCN(c4ccc(F)cc4)CC3)C(=O)c3ccccc3C2=O)cc1 | > 26 µM (inactive) |
| COc1ccc(C2/C=C\CN(C(=O)c3ccccc3)[C@H](Cc3ccccc3)C(=O)N2Cc2ccc(F)cc2)cc1 (some centres not stated) | > 26 µM (inactive) |
| CC(=O)/C=C/n1c(=S)oc2ccccc21 | > 26 µM (inactive) |
| O=C1C=C(N2CCCCC2)c2ccccc2C1=O | > 26 µM (inactive) |
| CN1/C(=C\C(=O)COC(=O)c2ccc(O)c(O)c2)C(C)(C)c2ccccc21 | > 26 µM (inactive) |
| CCCCC(=O)NC(c1ccccc1OC)c1ccc2cccnc2c1O (configuration not stated) | > 26 µM (inactive) |
| CCCc1sc(N/N=C/c2ccccn2)nc1-c1ccc(F)cc1 | > 26 µM (inactive) |
| CCOC(=O)c1c(C)oc2c1C(=O)c1ccccc1C2=O | > 26 µM (inactive) |
| COc1ccc(-c2c[n+]3c4n2CCCCC4=C(c2ccc(Br)cc2)C3)cc1 | > 26 µM (inactive) |
| CCCCCCSc1cc(-c2nc3ccc(C)cn3c2NCc2ccccc2)ccc1OC | > 26 µM (inactive) |
| O=[N+]([O-])c1ccc(O)c(/C=N/Nc2ccccn2)c1 | > 26 µM (inactive) |
| Cc1cc(C)c(S(=O)(=O)/N=C2\C=C(Nc3ccc(C(=O)O)cc3)C(=O)c3ccccc32)c(C)c1 | > 26 µM (inactive) |
| Cc1ccc(C2CC(c3ccc(C)cc3)n3nc(N)nc3N2)cc1 (configuration not stated) | > 26 µM (inactive) |
| COc1ccc(CN(C)c2ccc(S(=O)(=O)N3CCN(C)CC3)cc2[N+](=O)[O-])cc1OC | > 26 µM (inactive) |

| Compound | AC50 |
| --- | --- |
| O=C(N/N=C/c1ccccc1O)c1cccc(C(F)(F)F)c1 | > 26 µM (inactive) |
| COc1cnc(-c2ccccn2)nc1Sc1ccc(C)cc1 | > 26 µM (inactive) |
| COc1ccc2c(c1)C(=O)[C@H](O)[C@@H](c1ccc(OC)c(Br)c1)O2 | > 26 µM (inactive) |
| Cc1cc(-c2n[nH]c(=S)n2/N=C/C(Br)=C/c2ccccc2)n[nH]1 | 12.4 µM |
| Cc1cc(N/N=C/c2ccccc2[N+](=O)[O-])nc(-n2nc(C)cc2C)n1 | > 26 µM (inactive) |
| Cc1ccccc1C(=O)N1CCN(c2ccc(NC(=O)c3cccnc3)cc2)CC1 | > 26 µM (inactive) |
| CC(=O)NC(c1cccs1)c1cc(F)c2cccnc2c1O (configuration not stated) | > 26 µM (inactive) |
| CCOc1cc(N2CCOCC2)c(OCC)cc1NC(=O)COc1cccc2cccnc12 | > 26 µM (inactive) |
| Cc1cc(C(=O)NC2CCCc3c2cnn3-c2cccc(C)c2C)n(C)n1 (configuration not stated) | > 26 µM (inactive) |
| CCCOc1ccc(/C=N/NC(=S)Nc2ccccc2[N+](=O)[O-])c(O)c1 | > 26 µM (inactive) |
| COc1ccccc1C(=O)Nc1nc(-c2ccc(S(=O)(=O)N3CCOCC3)cc2)cs1 | > 26 µM (inactive) |
| N#Cc1c2ccc([N+](=O)[O-])cc2[n+]([O-])n1-c1ccccc1 | > 26 µM (inactive) |
| Cc1cc([N+](=O)[O-])nn1Cc1ccc(C(=O)N/N=C/c2ccc(O)cc2O)cc1 | > 26 µM (inactive) |
| Cc1ccc(NC(=O)COc2ccc(N(C)C(=O)C(C)(C)C)cc2)cc1S(=O)(=O)N1CCCCC1 | > 26 µM (inactive) |
| CCOC(=O)c1c(CSc2nc(C)cc(C)c2C#N)n(C)c2cc(Br)c(OC(C)=O)cc12 | > 26 µM (inactive) |
| Cc1ccc2[nH]c(=O)c(C3C(C#N)=C(N)Oc4c3ccc3cccnc43)cc2c1 (configuration not stated) | > 26 µM (inactive) |
| COc1cnc(-c2ccccn2)nc1N(C)C | > 26 µM (inactive) |
| C=CCn1cc(/C=C/c2cc[n+](C)cc2)c2ccccc21 | > 26 µM (inactive) |
| CCCCCCCCCC[N+](C)(C)CC/C=C1/c2ccccc2Sc2ccc(Cl)cc21 | > 26 µM (inactive) |
| Oc1ccc(/C=N/Nc2ncc(Br)cn2)c(O)c1 | > 26 µM (inactive) |
| CC1CCC(C(C)C)C(OC(=O)Cn2c(-c3ccc(Br)cc3)[n+](C)c3ccccc32)C1 (configuration not stated) | > 26 µM (inactive) |

Source: PubChem BioAssay AID463206 (Broad Institute, 2010)
